# Data: patent US20250109127A1, “METHODS OF USE OF PHENOXYPROPYLAMINE COMPOUNDS TO TREAT DEPRESSION” (Minerva Neurosciences, Inc., priority 2013, published 2025)
# Where “and” joins values, the source holds several entries; their conditions need not be identical. Equal entries are not always repeated. Structures can show the parent of a compound that is named as a salt.
# Tested on: 5-HIAA release in the rat prefrontal cortex
# Experiment: Microdialysis: 5-HIAA release in prefrontal cortex after I.P. administration
# Type: in vivo
# Conditions: for 5-HIAA (% of respective basal), individual animal: 0.1 mg/kg I.P., c2-c9 = R#13,14,20,19,25,26,31,32; for 5-HIAA (% of respective basal), individual animal / 5-HIAA release, individual animals: hydrochloride; for 5-HIAA release, MEAN / 5-HIAA release, individual animals: 0.3 mg/kg I.P.; for 5-HIAA release, MEAN: n = 8; for 5-HIAA release, individual animals: one column per animal R#11,12,18,23,29,30,17,24
# Protocol: The aim of the study was to evaluate, using microdialysis, the effects of an intraperitoneal (I.P.) administration in rats of three different doses of SON-117 on dopamine and its metabolites, serotonin and its metabolite (5-HIAA), and norepinephrine levels in prefrontal cortex.
# Thirty-two adult male Wistar rats were used for the whole study (4 groups of eight animals planned for the study, Table 1).
# Surgery was performed on rats weighing about 300 g at the beginning of the experiments. Rats were anaesthetized with Ketamine (50 mg/kg) & Xylazine (15 mg/kg) by intramuscular administration. The animals were placed in a stereotaxic apparatus in the flat-skull position at a constant setting of −3.3 mm between ear bars and the incisor bar. The animals were treated with a local anesthesic (xylocaine 1%, Astra Zeneca) and an analgesic (Temgesic, from Schering Plough, 0.05 mg/kg, s.c.). A rostrocaudal midline incision was made with a lancet to expose the dorsal skull surface. The “stereotaxic zero” was defined by the Bregma in accordance with Paxinos and Watson's atlas (1986). A hole was drilled in the skull with a drill and the meninges were pierced with a sterile needle to implant a CMA12 guide cannula which later received the dialysis probe.
# Coordinates used for implanting guide cannula in prefrontal cortex from Bregma were anteroposterior 3.7 mm, mediolateral 0.8 mm, and dorsoventral −2 mm (top of the probe was at −5 mm). The guide cannula was fixed to the skull with two stainless steel screws (1.88 mm outside diameter) anchored. An application of dental cement was added. A plastic collar allowed each animal to be tethered to a Swivel assembly of the CMA 120 awake animal system. Following surgery, rats were kept in individual cages and allowed to recover for a minimum of 3-5 days before the experimentation. The rats were handled and put in plastic bowl for 10 min at least every day to habituate the animals to their new environment for the dialysis. An I.P. administration with saline was also performed every day.
# Dialysis probes (CMA12/3 mm, membrane, 20 kD cut-off, Carnegie Medicine, Stockholm, Sweden), were carefully washed before inserting into the guide cannula. The wash was performed with the artificial cerebrospinal fluid (aCSF) medium (NaCl 147 mM, KCl 2.7 mM, CaCl2 1.2 mM, MgCl2 0.85 mM) at room temperature. The dialysis system was then equilibrated at 20° C. at a perfusion rate of 1 μl/min with a Carnegie pump (CMA100). All catheters (FEP tubing, internal volume of 1.2 μl/10 cm, and tubing adaptors) used for microdialysis were treated in the same conditions.
# The probes duly prepared were inserted into the guide cannula and the CMA120 Swivel assembly secured to the animal using a plastic collar. Flow through the dialysis probe with aCSF was maintained at a rate of 1 μl/min during the whole experimentation. The first four fractions (corresponding to 2 hours) were discarded to avoid the effects of parenchymal disturbance and to ensure that an approximate steady-state level was reached. Fractions were then collected over a period of 8.5 h during which time the animals remained quiet. The dialysates were automatically collected with an autosampler (microfraction collector CMA 140, Carnegie Medicin) and stored at −80° C. until analysis. […] Perfusion was then maintained for 7 hours with aCSF. The dialysates (30 μl) were collected into 300 μl vials, transferred into dry ice and then kept frozen (−80° C.) until analysis. Frozen samples were shipped to a partner for analysis. At the end of the microdialysis study, a PBS with colored ink was perfused through the probe in order to visualize the dialyzed area.
# Catecholamine assay: Concentrations of dopamine, DOPAC, HVA, 5-HIAA, 5-HT, and norepinephrin were determined for each sample by HPLC coupled with electrochemical detection.
smiles,measurement,setting,value
"Cc1nnc(-c2cc3c(OC[C@@H](O)CN4CCC(c5ccc(Cl)c(Cl)c5)CC4)cccc3o2)o1 [SON-117, (S)-1-(4-(3,4-dichlorophenyl)piperidino)-3-(2-(5-methyl-1,3,4-oxadiazol-2-yl)benzo(b)furan-4-yloxy)-2-propanol hydrochloride]","5-HIAA (% of respective basal), individual animal",T30-T1 h,123.49 % of respective basal and 103.49 % of respective basal and 107.39 % of respective basal and 112.69 % of respective basal and 111.19 % of respective basal and 139.2 % of respective basal and 117.52 % of respective basal and 104.09 % of respective basal
same,"5-HIAA (% of respective basal), individual animal",T1 h 30-T2 h,92.61 % of respective basal and 104.00 % of respective basal and 73.42 % of respective basal and 136.95 % of respective basal and 121.36 % of respective basal and 90.88 % of respective basal and 109.96 % of respective basal and 88.3 % of respective basal
same,"5-HIAA (% of respective basal), individual animal",T1 h-T1 h 30,133.03 % of respective basal and 136.32 % of respective basal and 86.58 % of respective basal and 118.45 % of respective basal and 137.53 % of respective basal and 136.04 % of respective basal and 114.03 % of respective basal and 94.61 % of respective basal
same,"5-HIAA (% of respective basal), individual animal",T2 h 30-T3 h,85.72 % of respective basal and 87.35 % of respective basal and 46.33 % of respective basal and 101.63 % of respective basal and 145.61 % of respective basal and 142.25 % of respective basal and 116.28 % of respective basal and 27.66 % of respective basal
same,"5-HIAA (% of respective basal), individual animal",T2 h-T2 h 30,100.99 % of respective basal and 85.23 % of respective basal and 60.74 % of respective basal and 101.82 % of respective basal and 125.47 % of respective basal and 100.57 % of respective basal and 111.12 % of respective basal and 50.78 % of respective basal
same,"5-HIAA (% of respective basal), individual animal",T3 h 30-T4 h,85.88 % of respective basal and 94.27 % of respective basal and 31.74 % of respective basal and 96.48 % of respective basal and 188.3 % of respective basal and 137.13 % of respective basal and 101.46 % of respective basal and 21.73 % of respective basal
same,"5-HIAA (% of respective basal), individual animal",T3 h-T3 h 30,129.21 % of respective basal and 80.95 % of respective basal and 41.77 % of respective basal and 96.17 % of respective basal and 133.55 % of respective basal and 113.01 % of respective basal and 113.45 % of respective basal and 29.04 % of respective basal
same,"5-HIAA (% of respective basal), individual animal",T4 h 30-T5 h,135.57 % of respective basal and 84.63 % of respective basal and 82.26 % of respective basal and 21.52 % of respective basal and 127.36 % of respective basal and 130.30 % of respective basal and 108.83 % of respective basal and 86.42 % of respective basal
same,"5-HIAA (% of respective basal), individual animal",T4 h-T4 h 30,155.28 % of respective basal and 81.87 % of respective basal and 29.82 % of respective basal and 104.10 % of respective basal and 154.95 % of respective basal and 128.712 % of respective basal and 116.56 % of respective basal and 100.63 % of respective basal
same,"5-HIAA (% of respective basal), individual animal",T5 h 30-T6 h,139.17 % of respective basal and 82.04 % of respective basal and 19.18 % of respective basal and 72.04 % of respective basal and 120.26 % of respective basal and 106.59 % of respective basal and 103.65 % of respective basal and 79.99 % of respective basal
same,"5-HIAA (% of respective basal), individual animal",T5 h-T5 h 30,141.25 % of respective basal and 94.73 % of respective basal and 20.29 % of respective basal and 84.33 % of respective basal and 123.82 % of respective basal and 104.61 % of respective basal and 111.73 % of respective basal and 87.84 % of respective basal
same,"5-HIAA (% of respective basal), individual animal",T6 h 30-T7 h,142.73 % of respective basal and 92.55 % of respective basal and 23.25 % of respective basal and 79.21 % of respective basal
same,"5-HIAA (% of respective basal), individual animal",T6 h-T6 h 30,150.15 % of respective basal and 87.80 % of respective basal and 10.87 % of respective basal and 82.34 % of respective basal and 124.74 % of respective basal and 107.55 % of respective basal and 96.41 % of respective basal and 77.86 % of respective basal
same,"5-HIAA release, MEAN",T0-T30 min,103.44 % of respective basal
same,"5-HIAA release, MEAN",T30-T1 h,100.34 % of respective basal
same,"5-HIAA release, individual animals",T30-T1 h,98.98 % of respective basal and 79.36 % of respective basal and 110.17 % of respective basal and 105.67 % of respective basal and 80.63 % of respective basal and 95.45 % of respective basal and 117.90 % of respective basal and 114.56 % of respective basal
same,"5-HIAA release, MEAN",T1 h 30-T2 h,92.27 % of respective basal
same,"5-HIAA release, individual animals",T1 h 30-T2 h,107.81 % of respective basal and 80.74 % of respective basal and 99.11 % of respective basal and 100.15 % of respective basal and 74.98 % of respective basal and 49.45 % of respective basal and 122.26 % of respective basal and 103.65 % of respective basal
same,"5-HIAA release, MEAN",T1 h-T1 h 30,98.46 % of respective basal
same,"5-HIAA release, individual animals",T1 h-T1 h 30,102.59 % of respective basal and 87.99 % of respective basal and 119.49 % of respective basal and 107.50 % of respective basal and 64.53 % of respective basal and 82.55 % of respective basal and 108.28 % of respective basal and 114.78 % of respective basal
same,"5-HIAA release, MEAN",T2 h 30-T3 h,88.58 % of respective basal
same,"5-HIAA release, individual animals",T2 h 30-T3 h,90.73 % of respective basal and 88.56 % of respective basal and 94.96 % of respective basal and 87.45 % of respective basal and 59.92 % of respective basal and 79.89 % of respective basal and 107.14 % of respective basal and 99.98 % of respective basal
same,"5-HIAA release, MEAN",T2 h-T2 h 30,88.16 % of respective basal
same,"5-HIAA release, individual animals",T2 h-T2 h 30,82.87 % of respective basal and 87.22 % of respective basal and 100.63 % of respective basal and 93.66 % of respective basal and 63.67 % of respective basal and 70.87 % of respective basal and 109.73 % of respective basal and 96.64 % of respective basal
